{"source": "patent US20200037609A1", "about": "“HERBICIDAL COMPOSITIONS AND METHODS OF USE THEREOF” (The Regents of the University of California, priority 2017, published 2020)", "key": {"[1]": {"test_system": "tomato seedlings (Solanum lycopersicum)", "assay": "Agar-based plant growth inhibition assay on MS media", "assay_type": "in vivo", "conditions": "50 μM aspterric acid", "description": "Sterile tomato seedlings were plated on MS media containing 50 μM aspterric acid and 1% DMSO (to increase the solubility of aspterric acid) or on MS media containing 50 μM glyphosate on day 0. MS media containing only 1% DMSO was used as a control. Growth was assessed on day 3 and day 7.\n(§1) Growth inhibition assay of plants on plates or in the tubes. MS (2.16 g/L Murashige and Skoog basal medium, 8 g/L sucrose, 8 g/L agar) media was used to test the growth inhibition of AA on A. thaliana, Solanum lycopersicum, and Zea mays. A. thaliana, S. lycopersicum, G. max and Z. mays were grown under long day condition (16/8 h light/dark) using cool-white fluorescence bulbs as the light resource at 23° C. AA was dissolved in ethanol and added to the media before inoculating strains or growing plants. The media of control treatment contains the same amount of ethanol, but without AA."}, "[2]": {"test_system": "S. cerevisiae ΔILV3 expressing fDHAD", "assay": "Growth inhibition of S. cerevisiae ΔILV3 in ILV dropout media", "assay_type": "cell-based, Saccharomyces cerevisiae", "description": "Growth inhibition assay of S. cerevisiae on plates or in the tubes. S. cerevisiae was grown in isoleucine, leucine and valine (ILV) dropout media (20 g/L glucose, 0.67 g/L Difco™ Yeast Nitrogen Base w/o amino acids, 18 mg/L adenine, arginine 76 mg/L, asparagine 76 mg/L, aspartic acid 76 mg/L, glutamic acid 76 mg/L, histidine 76 mg/L, lysine 76 mg/L, methionine 76 mg/L, phenylalanine 76 mg/L, serine 76 mg/L, threonine 76 mg/L, tryptophan 76 mg/L, tyrosine 76 mg/L) to test growth inhibition of AA on S. cerevisiae. S. cerevisiae was incubated at 28° C. until OD600 of the control strain without AA treatment reached about 0.8. The ratio of yeast OD600 in media with AA treatment to yeast OD600 in media without AA was calculated as the percentage of growth inhibition. The inhibition curve was plotted as percentage of inhibition versus AA concentrations. […] The growth curves of TY05, TY06 and TY07 were also plotted (FIG. 29A-29D). The OD600 was recorded for every 20 minutes over a total of 50 h. The inhibition percentage can be calculated by following equation: […]"}, "[3]": {"test_system": "glufosinate resistant A. thaliana", "assay": "Plant growth inhibition assay by spraying (250 μM AA in Finale + ethanol)", "assay_type": "in vivo, Arabidopsis thaliana", "conditions": "glufosinate resistant plants without astD, listed as AA", "description": "(§2) Plant growth inhibition assay by spraying. AA was firstly dissolved in ethanol and then added to solvent (0.06 g/L Finale® Bayer Inc.+20 g/L EtOH). The control plants were treated with solvent containing ethanol only. A. thaliana that are resistant to glufosinate (containing the bar gene) were grown under long day conditions (16/8 h light/dark) using cool-white fluorescence bulbs as the light resource at 23° C. Spraying treatments began when the seeds germinated, and was repeated once every two days with approximately 0.4 mL AA solution per time per pot."}, "[4]": {"biological_target": "T1, AstD (Aspergillus terreus, UniProt Q0CPG9)", "T1 construct": "[…]; 6xHis; made in house; host or cells: E. coli BL21 (DE3)", "T1 sequence (Q0CPG9 112-598)": "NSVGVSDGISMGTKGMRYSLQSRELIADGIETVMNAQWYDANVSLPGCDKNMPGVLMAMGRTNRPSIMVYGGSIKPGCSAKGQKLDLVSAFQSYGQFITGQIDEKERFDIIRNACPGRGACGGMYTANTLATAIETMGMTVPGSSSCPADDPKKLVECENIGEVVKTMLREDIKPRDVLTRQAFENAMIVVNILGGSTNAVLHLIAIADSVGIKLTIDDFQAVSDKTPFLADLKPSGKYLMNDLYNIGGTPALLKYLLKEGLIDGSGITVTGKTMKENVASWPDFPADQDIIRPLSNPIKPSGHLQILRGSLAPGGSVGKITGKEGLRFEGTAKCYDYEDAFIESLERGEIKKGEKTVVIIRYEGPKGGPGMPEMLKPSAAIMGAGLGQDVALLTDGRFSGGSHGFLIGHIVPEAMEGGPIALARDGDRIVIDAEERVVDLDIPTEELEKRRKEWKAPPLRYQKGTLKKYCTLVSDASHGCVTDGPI", "assay": "DHAD enzymatic inhibition assay (phenylhydrazine derivatization, LC-MS)", "assay_type": "biochemical", "conditions": "8 mM aspterric acid", "description": "Enzymatic activity reactions were carried out in […] volumes containing 50 mM storage buffer, 10 mM (±)-Sodium 2,3-dihydroxyisovalerate hydrate (DHAD substrate) and 1 μM purified DHAD enzyme. After incubation for 30 minutes at 30° C., the reaction was stopped by adding an equal volume of ethanol. 1/10 volumes of 100 mM phenylhydrozine was added at room temperature for 30 minutes to derivatize the DHAD-synthesized molecule (3-methyl-2-oxo-butanoic acid) into a detectable derivatization product (DDP). See FIG. 5A for an overview of reactions.\nInhibition assays were carried out according to the reactions described above by incubating purified DHAD enzymes (either the housekeeping DHAD from Aspergillus terreus, the housekeeping DHAD from Arabidopsis thaliana, or AstD from Aspergillus terreus) with aspterric acid at various concentrations. For AstD, up to 8 mM of aspterric acid was tested. Derivatization with phenylhydrozine, LC-MS analysis, and DDP detection by UV absorption at 350 nm was carried out. The half maximal inhibitory concentration (IC50) and the effect of aspterric acid on the enzyme kinetics of each purified DHAD enzyme was calculated based on the initial reaction rates observed in the inhibition assays.\nBiochemical assay of DHADs. […] The area of the HPLC peak with UV absorption at 350 nm was used to quantify the amount of 6. […]"}, "[5]": {"test_system": "astD transgene-expressing A. thaliana", "assay": "AA resistance of astD transgenic plants (media and spray)", "assay_type": "in vivo, Arabidopsis thaliana", "description": "as §1, §2\nThe coding sequence of AstD was codon optimized for A. thaliana. A chloroplast localization signal (CLS) of 35-amino acid residues derived from the N-terminal of A. thaliana DHAD (SEQ ID NO: 19) was fused to N-terminus of the codon optimized AstD. […]"}, "[6]": {"test_system": "Zea mays", "assay": "Plant growth inhibition assay on MS media", "assay_type": "in vivo", "conditions": "50 μM AA", "description": "as §1"}, "[7]": {"test_system": "green bean seedlings", "assay": "Agar-based plant growth inhibition assay on MS media", "assay_type": "in vivo", "conditions": "50 μM aspterric acid, day 3 and day 7", "description": "Sterile green bean seedlings were plated on MS media containing 50 μM aspterric acid and 1% DMSO (to increase the solubility of aspterric acid) on day 0. MS media containing only 1% DMSO was used as a control. Growth was assessed on day 3 and day 7."}, "[8]": {"test_system": "pollen development in Arabidopsis thaliana", "conditions": "literature, cited from earlier work"}}, "note": "“Also recorded” adds a separate entry of the source. Read-outs that look alike come from different tables or passages of the source."}
{"smiles": "CC(C)=C1CC[C@]23CO[C@H](C2)[C@@](O)(C(=O)O)CC[C@@H]13", "note": "[aspterric acid]", "values": [{"measurement": "growth of tomato (Solanum lycopersicum) on MS media", "setting": "[1]", "result": "significant vegetative growth inhibition"}, {"measurement": "growth of tomato (Solanum lycopersicum) on MS media", "setting": "[1]; listed as AA", "result": "effective inhibitor of root development and plant growth"}, {"measurement": "IC50", "setting": "[2]; Saccharomyces cerevisiae, ILV dropout media, read-out: IC50 of growth inhibition, yeast expressing fDHAD", "result": "~2000", "unit": "nM"}, {"measurement": "sensitivity to AA of yeast expressing fDHAD compared to yeast expressing AstD", "setting": "[2]; ratio of IC50", "result": "approximately 100 times"}, {"measurement": "plant growth after spray of AA in Finale", "setting": "[3]", "result": "severely inhibited plant growth; also recorded: strong growth inhibitory phenotype"}, {"measurement": "inhibition of AstD", "setting": "[4]", "result": "no inhibition"}, {"measurement": "inhibition of AstD", "setting": "[4]; listed as AA", "result": "not inhibited"}, {"measurement": "growth of astD transgenic plants on media", "setting": "[5]; 100 μM AA", "result": "relatively unaffected"}, {"measurement": "growth of T2 astD transgenic plants after spray", "setting": "[5]; 250 μM AA + glufosinate ammonium", "result": "no observable growth defects"}, {"measurement": "root development and plant growth of Zea mays on MS media", "setting": "[6]", "result": "effective inhibitor of root development and plant growth"}, {"measurement": "growth of green bean seedlings on MS media", "setting": "[7]", "result": "significant vegetative growth inhibition"}, {"measurement": "inhibition of pollen development in A. thaliana (previously reported)", "setting": "[8]", "result": "inhibit pollen development"}, {"measurement": "inhibition of pollen development in A. thaliana (previously reported)", "setting": "[8]; listed as AA", "result": "inhibitory activity towards pollen development"}]}
